Experimental data reported in US20080039455A1, “PYRAZOLOPYRIMIDINES AND SALTS THEREOF, PHARMACEUTICAL COMPOSITIONS COMPRISING SAME, METHODS OF PREPARING SAME AND USES OF SAME” (priority 2006, published 2008).
Counter-ions that a name gives are not always drawn.

Columns and labels:
[1] = biological target: T1, human recombinant ALK1 (GST fused to ALK1 intracellular domain [His142-Gln503]) (Homo sapiens, UniProt P37023); assay: ALK1-Kinase Flashplate-Assay; format: biochemical; conditions: 0.5 μM ATP, biotinylated α-casein substrate; read-out: Assay 1 (ALK1-Kinase Flashplate-Assay IC50 class)
T1 construct: GST fused to ALK1 intracellular domain [His142-Gln503]; made in house
T1 sequence (P37023 142-503): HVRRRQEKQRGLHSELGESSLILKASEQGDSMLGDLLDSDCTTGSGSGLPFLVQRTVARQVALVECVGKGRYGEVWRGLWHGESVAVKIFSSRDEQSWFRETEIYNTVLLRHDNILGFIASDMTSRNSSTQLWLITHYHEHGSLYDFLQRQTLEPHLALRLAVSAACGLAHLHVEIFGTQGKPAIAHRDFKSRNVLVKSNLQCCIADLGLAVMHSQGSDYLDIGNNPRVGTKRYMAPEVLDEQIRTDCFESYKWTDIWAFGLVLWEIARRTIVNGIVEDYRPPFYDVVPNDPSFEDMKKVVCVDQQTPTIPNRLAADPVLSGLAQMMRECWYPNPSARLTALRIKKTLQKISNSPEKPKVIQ
In short: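 Radiometric Flashplate assay at 20 °C: GST-ALK1 intracellular domain (5 ng/well) with 1 μM biotinylated bovine α-casein, 0.5 μM ATP plus [γ-33P]ATP in Tris pH 8.0, 1 mM MnCl2, 1% or 5% DMSO, 60 min. Normalised to no-inhibitor (0%) and 10 mM EDTA (100%); IC50 by 4-parameter fit.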

[2] = biological target: T2, ALK1 (wildtype full-length ALK1 receptor) (Homo sapiens, UniProt P37023); assay: ALK1 transactivation assay (ID1-promoter luciferase reporter in transfected HepG2 cells); format: cell-based; conditions: ID1-luc reporter, 18 h, read-out: Assay 2 (ALK1 transactivation assay IC50 class)
T2 construct: expression vector for wildtype full-length ALK1 receptor; expressed in transfected cells; host or cells: HepG2 (ATCC HB-8065), transient transfection with ALK1wt in pcDNA3.1
Description: Biological Assay 2: ALK1 Transactivation Assay
Herein HepG2 cell-cultures were transiently transfected by known techniques with an ALK1 plasmid (expression vector for wildtype full-length ALK1 receptor) and ID1 reporter plasmid containing 1.3 kB (−1370 to +86) of the ID1-promoter upstream of a luciferase reporter gene. ID1 is a known target gene of ALK1 and therefore gets transactivated by cotransfection with the ALK1 receptor. The specific transactivation is quantified via relative light units (RLU) which are detected in dependence of luciferase expression. Therefore a commercially available detection kit which contains the luciferase substrate luciferine was used.
HepG2 cells, ATCC HB-8065
96well plate polypropylene for compound dilution in DMSO
DMEM Ham's F12 (Biochrom #F4815) with 10% FCS after dialysis, 1% PenStrep and 200 mM Glutamine
steadyliteHTS (Perkin Elmer# 6016981)
Day 1: Seeding of Cells on 96-Well Plates
HepG2 cells are seeded on 96-well plates at a density of 7000 cells/ well in DMEM/HamsF12+5% FCS (+1% P/S, +1% Gln).
Day 2: Transfection of Cells
200 ng DNA: 100 ng ID1-luc (in pGL3basic, Promega)+5 ng ALK1wt (in pcDNA3.1)+95 ng pcDNA3.1 (empty vector, Invitogen)
Fugene and OptiMEM are incubated for 5 min at RT. This mixture is incubated with the DNA for 15 min at RT.
Afterwards, the plate is incubated under shaking conditions at room temperature (RT) for 1 h. After 4 hours at 37° C. the supernatants are drawn off by suction and the wells are replaced with medium (100 μl/well) containing low serum (0.2% FCS) and test substances.
Plates are incubated for further 18 h at 37° C.
100 μl luciferase substrate (steadyliteHTS, Packard) are added per well and plates are measured after 10 minutes in a luminometer (e.g. Viktor luminometer, Perkin Elmer). Luciferase activity is quantified by relative light units (RLU).
Calculation of IC50: ALK1wt−DMSO Control (without ALK1)=100% Substance(+ALK1wt)−DMSO control (without ALK1)=x % IC50=50% inhibition of ALK1 transactivation activity Biological data are presented below: Biological assay 1: ALK1-Kinase Flashplate-Assay

T2 sequence (P37023 22-503): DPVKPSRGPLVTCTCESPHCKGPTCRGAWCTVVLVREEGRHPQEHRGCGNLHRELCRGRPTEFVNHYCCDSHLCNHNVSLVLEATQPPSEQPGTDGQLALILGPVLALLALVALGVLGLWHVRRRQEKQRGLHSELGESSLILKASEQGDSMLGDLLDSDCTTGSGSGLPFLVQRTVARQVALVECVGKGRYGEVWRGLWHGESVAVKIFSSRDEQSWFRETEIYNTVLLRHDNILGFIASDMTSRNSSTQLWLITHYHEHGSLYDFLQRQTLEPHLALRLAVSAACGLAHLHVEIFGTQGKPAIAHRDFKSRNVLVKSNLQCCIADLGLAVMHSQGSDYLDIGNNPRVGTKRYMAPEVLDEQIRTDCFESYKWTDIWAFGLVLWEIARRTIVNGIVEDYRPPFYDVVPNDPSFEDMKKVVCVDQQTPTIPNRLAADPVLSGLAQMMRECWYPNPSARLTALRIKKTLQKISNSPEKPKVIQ

Row | Structure (SMILES) | IC50 [1] | IC50 [2]
1 | COc1cc(OC)cc(-c2cnn3ccc(Nc4ccc(N5CCOCC5)cc4)nc23)c1 [Example 127, [3-(3,5-Dimethoxy-phenyl)-pyrazolo[1,5-a]pyrimidin-5-yl]-(4-morpholin-4-yl-phenyl)-amine] | < 1000 nM | < 10000 nM
2 | FC(F)(F)c1cccc(-c2cnn3ccc(Nc4ccc(N5CCOCC5)nc4)nc23)c1 [Example 26, (6-Morpholin-4-yl-pyridin-3-yl)-[3-(3-trifluoromethyl-phenyl)-pyrazolo[1,5-a]pyrimidin-5-yl]-amine] | < 1000 nM | < 10000 nM
3 | COc1ccc(-c2cnn3ccc(Nc4ccc(N5CCOCC5)cc4)nc23)cc1OC [Example 27, [3-(3,4-Dimethoxy-phenyl)-pyrazolo[1,5-a]pyrimidin-5-yl]-(4-morpholin-4-yl-phenyl)-amine] | < 1000 nM | < 10000 nM
4 | COc1ccc(Nc2ccn3ncc(-c4ccc(OC)c(OC)c4)c3n2)cn1 [Example 465, [3-(3,4-Dimethoxy-phenyl)-pyrazolo[1,5-a]pyrimidin-5-yl]-(6-methoxy-pyridin-3-yl)-amine] | < 1000 nM | < 10000 nM
5 | CS(=O)(=O)c1cccc(-c2cnn3ccc(Nc4ccc(N5CCOCC5)cc4)nc23)c1 [Example 131, [3-(3-Methanesulfonyl-phenyl)-pyrazolo[1,5-a]pyrimidin-5-yl]-(4-morpholin-4-yl-phenyl)-amine] | < 1000 nM | < 10000 nM
6 | CN1CCC(Nc2ccn3ncc(-c4cccc(C(F)(F)F)c4)c3n2)CC1 [Example 490, (1-methyl-piperidin-4-yl)-[3-(3-trifluoromethyl-phenyl)-pyrazolo[1,5-a]pyrimidin-5-yl]-amine] | < 1000 nM | < 10000 nM
7 | CC(C)c1ccc(Nc2ccn3ncc(-c4cccc(C(N)=O)c4)c3n2)cc1 [Example 449, 3-[5-(4-Isopropyl-phenylamino)-pyrazolo[1,5-a]pyrimidin-3-yl]-benzamide] | < 1000 nM | < 10000 nM
8 | COc1cc(OC)cc(-c2cnn3ccc(Nc4ccc(N5CCOCC5)nc4)nc23)c1 [Example 30, [3-(3,5-Dimethoxy-phenyl)-pyrazolo[1,5-a]pyrimidin-5-yl]-(6-morpholin-4-yl-pyridin-3-yl)-amine] | < 1000 nM | < 10000 nM
9 | c1csc(-c2cnn3ccc(NC4CCNCC4)nc23)c1 [Example 495, Piperidin-4-yl-(3-thiophen-2-yl-pyrazolo[1,5-a]pyrimidin-5-yl)-amine bis TFA salt] | < 1000 nM | < 10000 nM
10 | COc1cncc(-c2cnn3ccc(Nc4ccc(N5CCOCC5)cc4)nc23)c1 [Example 422, [3-(5-Methoxy-pyridin-3-yl)-pyrazolo[1,5-a]pyrimidin-5-yl]-(4-morpholin-4-yl-phenyl)-amine] | < 1000 nM | < 10000 nM
11 | COc1cc(OC)cc(-c2cnn3ccc(NC4CCN(C)CC4)nc23)c1 [Example 10, [3-(3,5-Dimethoxy-phenyl)-pyrazolo[1,5-a]pyrimidin-5-yl]-(1-methyl-piperidin-4-yl)-amine] | < 1000 nM | < 10000 nM
12 | COc1cc(-c2cnn3ccc(Nc4ccccc4)nc23)cc(OC)c1OC [Example 2, phenyl-[3-(3,4,5-trimethoxy-phenyl)-pyrazolo[1,5-a]pyrimidin-5-yl]-amine] | < 1000 nM | < 10000 nM
13 | COc1ccc(-c2cnn3ccc(Nc4ccc(N5CCOCC5)cc4)nc23)cn1 [Example 20, [3-(6-Methoxy-pyridin-3-yl)-pyrazolo[1,5-a]pyrimidin-5-yl]-(4-morpholin-4-yl-phenyl)-amine] | < 1000 nM | < 10000 nM
14 | O=C(O)CCc1ccc(-c2cnn3ccc(Nc4ccc(O)cc4)nc23)cc1 [Example 83, 3-{4-[5-(4-Hydroxy-phenylamino)-pyrazolo[1,5-a]pyrimidin-3-yl]-phenyl}-propionic acid] | 1000 to 10000 nM | 
15 | COc1ccc(-c2cnn3ccc(NC4CCC(O)CC4)nc23)cc1 (stereo not drawn) [Example 155, 4-[3-(4-Methoxy-phenyl)-pyrazolo[1,5-a]pyrimidin-5-ylamino]-cyclohexanol] | 1000 to 10000 nM | 
16 | COc1cc(Nc2ccn3ncc(-c4cccc(C(=O)NCCO)c4)c3n2)cc(OC)c1OC [Example 79, N-(2-Hydroxy-ethyl)-3-[5-(3,4,5-trimethoxy-phenylamino)-pyrazolo[1,5-a]pyrimidin-3-yl]-benzamide] | 1000 to 10000 nM | 
17 | COc1ccc(-c2cnn3ccc(Nc4ccc(NS(=O)(=O)c5ccc(C)cc5)cc4)nc23)cc1OC [Example 56, N-{4-[3-(3,4-Dimethoxy-phenyl)-pyrazolo[1,5-a]pyrimidin-5-ylamino]-phenyl}-4-methyl-benzenesulfonamide] | < 1000 nM | 
18 | N#Cc1ccc(-c2cnn3ccc(Nc4ccc(O)cc4)nc23)cc1 [Example 86, 4-[5-(4-Hydroxy-phenylamino)-pyrazolo[1,5-a]pyrimidin-3-yl]-benzonitrile] | 1000 to 10000 nM | 
19 | COc1cc(Nc2ccn3ncc(-c4cccc(O)c4)c3n2)cc(OC)c1OC [Example 138, 3-[5-(3,4,5-Trimethoxy-phenylamino)-pyrazolo[1,5-a]pyrimidin-3-yl]-phenol] | 1000 to 10000 nM | 
20 | COc1cc(Nc2ccn3ncc(-c4ccc(O)cc4)c3n2)cc(OC)c1OC [Example 463, 4-[5-(3,4,5-Trimethoxy-phenylamino)-pyrazolo[1,5-a]pyrimidin-3-yl]-phenol] | 1000 to 10000 nM | 
21 | Oc1ccc(-c2cnn3ccc(NCc4ccncc4)nc23)cc1 [Example 66, 4-{5-[(Pyridin-4-ylmethyl)-amino]-pyrazolo[1,5-a]pyrimidin-3-yl}-phenol] | < 1000 nM | 
22 | COc1cccc(-c2cnn3ccc(Nc4ccccc4)nc23)c1 [Example 241, [3-(3-Methoxy-phenyl)-pyrazolo[1,5-a]pyrimidin-5-yl]-phenyl-amine] | 1000 to 10000 nM | 
23 | COc1cncc(-c2cnn3ccc(Nc4ccc(O)cc4)nc23)c1 [Example 87, 4-[3-(5-Methoxy-pyridin-3-yl)-pyrazolo[1,5-a]pyrimidin-5-ylamino]-phenol] | < 1000 nM | 
24 | OCc1cccc(-c2cnn3ccc(Nc4cccc(Cl)c4)nc23)c1 [Example 312, {3-[5-(3-Chloro-phenylamino)-pyrazolo[1,5-a]pyrimidin-3-yl]-phenyl}-methanol] | 1000 to 10000 nM | 
25 | COc1ccc(-c2cnn3ccc(NCc4cccnc4)nc23)cc1OC [Example 292, [3-(3,4-Dimethoxy-phenyl)-pyrazolo[1,5-a]pyrimidin-5-yl]-pyridin-3-ylmethyl-amine] | 1000 to 10000 nM | 
26 | c1ccc(Nc2ccn3ncc(-c4cccnc4)c3n2)cc1 [Example 278, Phenyl-(3-pyridin-3-yl-pyrazolo[1,5-a]pyrimidin-5-yl)-amine] | 1000 to 10000 nM | 
27 | COc1cccc(-c2cnn3ccc(Nc4cc(OC)c(OC)c(OC)c4)nc23)c1 [Example 178, [3-(3-Methoxy-phenyl)-pyrazolo[1,5-a]pyrimidin-5-yl]-(3,4,5-trimethoxy-phenyl)-amine] | 1000 to 10000 nM | 
28 | O=C(O)/C=C/c1cccc(-c2cnn3ccc(NC4CCC(O)CC4)nc23)c1 (stereo not drawn) [Example 157, (E)-3-{3-[5-(4-Hydroxy-cyclohexylamino)-pyrazolo[1,5-a]pyrimidin-3-yl]-phenyl}-acrylic acid] | 1000 to 10000 nM | 
29 | c1csc(-c2cnn3ccc(NC4CCCCC4)nc23)c1 [Example 494, Cyclohexyl-(3-thiophen-2-yl-pyrazolo[1,5-a]pyrimidin-5-yl)-amine] | 1000 to 10000 nM | 
